# Data taken from patent US20080206198A1, “Compounds and methods for pharmico-gene therapy of epithelial sodium channel associated disorders” (priority 2003, published 2008).
# Structures can show the parent of a compound that is named as a salt. Peptide text beside a SMILES is read from it.
# System: HeLa cells
# Assay: AAV2 FLAG-Luc transduction of HeLa cells (luciferase screen)
# Type: cell-based, human
# Details: not given
# Excerpt: A. To screen for agents that enhance rAAV transduction, any number of cells can be used. A range of concentrations of the agent to be tested can be determined based on, for instance desirable profiles of the agent, desirable toxicity profiles of the agent and/or concentration of the agents employed in vivo. The usefulness of the cell type chosen for the screen can be confirmed by testing compounds, e.g., proteasome inhibitors such as LLnL and ZLL which are known to increase rAAV transduction. For example, a AAV2 FLAG-Luc vector was employed to transduce HeLa, ferret fibroblasts, IB3 and Huh (liver) cells in the presence or absence of the proteasome inhibitor MG132. MG132 was confirmed to enhance AAV transduction in all cell types tested: HeLa cell transduction was enhanced about 500-fold at 80 μM, and 200-fold at 40 μM, MG132; ferret fibroblast cell transduction was enhanced about 200-fold at 20 μM, and 17-fold at 4 μM, MG132; IB3-1 cell transduction was enhanced about 30 to 70-fold at 20 to 80 μM MG132; and Huh-7 cell transduction was enhanced about 15-fold at 20 to 80 μM MG132. There was no difference in rAAV transduction efficiency in HeLa cells when either DMSO or ETOH was used as a vehicle for MG132. B. HeLa cells were selected to screen for additional agents that enhance rAAV transduction, although any cell strain or line; or primary cells, may be employed. […] The range of concentrations of the agents to be tested were selected based on solubility profiles, toxicity profiles and/or concentrations previously employed in vivo.
# HeLa cells were infected for 2 hours with an MOI of 100 rAAV in the presence of agents, e.g., ritonavir (Norvir) (1, 10 and 100 μM), cyclosporin A (2.5, 25 and 250 μg/ml), epoxomicin (1, 10 and 50 μM), alcacinomycin A (5, 50 or 500 μM), chymostatin (1, 10 and 100 μM), bestatin (1, 10 and 100 μM), doxorubicin (adriamycin) (0.1, 1 and 10 μM), camptothecin (camptosar) (1, 10 and 100 μM), eicosapentanoic acid (1, 10 and 100 μM), tannic acid (2, 20, 200 and 2000 μM), simvastatin, prodrug (2, 20 and 200 μM), cisplatin (0.2, 2 and 20 μg/mL), and chloroquine (4, 40 and 400 μM). Forty-eight hours after infection, cells were harvested for analysis. rAAV transduction was measured by removing the media from the cell cultures, adding 100 μL reporter lysis buffer (RLB) and freezing. The supernatant was thawed and transferred to microfuge tubes, freeze thawed an additional 2 times, clarified by centrifugation for 10 minutes and then analyzed for reporter gene expression on the lumometer. Protein was determined by Bradford analysis and results were expressed as relative light units per mg protein (RLU/mg).
# Based on results with doxorubicin, a small number of FDA approved anthracyclines were tested for their relative in vitro and in vivo activities on AAV transduction. HeLa cells were infected with 100 ppc AAV2FLAG-Luc for 2 hours in the presence of different anthracyclines, e.g., doxorubicin, daunarubicin (Cerubidine), epirubicin (Ellence™), and idarubicin (Idamycin®), and cells harvested 48 hours later. The anthracyclines were pharmaceutical grade, and prepared according to the manufacturer's instructions. Prior to use, the agents were diluted in sterile water to an equal mass, e.g., 0.6 μg/mL, 3 μg/mL and 6 μg/mL. For example, 3 μg/mL idamycin increased luciferase expression by over 5000-fold while doxorubin increased luciferase expression by 58-fold. Generally, the potency was as follows: idarubicin>daunarubicin>epirubicin>doxorubicin.
row,SMILES,result in cell line screening
1,CC[C@H](C)C(=O)O[C@H]1C[C@@H](C)C=C2C=C[C@H](C)[C@H](CC[C@@H]3C[C@@H](O)CC(=O)O3)[C@H]21 [lovastatin],negative results

# Same assay, conditions: 0.6, 3 and 6 μg/mL
row,SMILES,order of potency among anthracyclines
1,COc1cccc2c1C(=O)c1c(O)c3c(c(O)c1C2=O)C[C@@](O)(C(C)=O)C[C@@H]3O[C@H]1C[C@H](N)[C@H](O)[C@H](C)O1 [daunarubicin],idarubicin>daunarubicin>epirubicin>doxorubicin
2,COc1cccc2c1C(=O)c1c(O)c3c(c(O)c1C2=O)C[C@@](O)(C(=O)CO)C[C@@H]3O[C@H]1C[C@H](N)[C@@H](O)[C@H](C)O1 [epirubicin],idarubicin>daunarubicin>epirubicin>doxorubicin

# Same assay, conditions: at the doses tested; MOI 100, 2 hours infection, harvest 48 hours
row,SMILES,increase in transduction efficiency [fold]
1,CC[C@@]1(O)C(=O)OCc2c1cc1n(c2=O)Cc2cc3ccccc3nc2-1 [camptothecin],15
2,N.N.[Cl][Pt][Cl] [cisplatin],16
3,CC[C@H](C)[C@H](NC(=O)[C@H]([C@@H](C)CC)N(C)C(C)=O)C(=O)N[C@H](C(=O)N[C@@H](CC(C)C)C(=O)[C@@]1(C)CO1)[C@@H](C)O [epoxomicin],≤ 120
4,CCC(C)(C)C(=O)O[C@H]1C[C@@H](C)C=C2C=C[C@H](C)[C@H](CC[C@@H]3C[C@@H](O)CC(=O)O3)[C@H]21 [simvastatin],4
5,O=C(OC[C@H]1O[C@@H](OC(=O)c2cc(O)c(O)c(OC(=O)c3cc(O)c(O)c(O)c3)c2)[C@H](OC(=O)c2cc(O)c(O)c(OC(=O)c3cc(O)c(O)c(O)c3)c2)[C@@H](OC(=O)c2cc(O)c(O)c(OC(=O)c3cc(O)c(O)c(O)c3)c2)[C@@H]1OC(=O)c1cc(O)c(O)c(OC(=O)c2cc(O)c(O)c(O)c2)c1)c1cc(O)c(O)c(OC(=O)c2cc(O)c(O)c(O)c2)c1 [tannic acid],17

# Same assay, conditions: dose ranges tested
row,SMILES,dose dependence of transduction
1,CC[C@@]1(O)C(=O)OCc2c1cc1n(c2=O)Cc2cc3ccccc3nc2-1 [camptothecin],dose-dependent increase in transduction
2,CC[C@H](C)[C@H](NC(=O)[C@H]([C@@H](C)CC)N(C)C(C)=O)C(=O)N[C@H](C(=O)N[C@@H](CC(C)C)C(=O)[C@@]1(C)CO1)[C@@H](C)O [epoxomicin],dose-dependent increase in transduction

# System: polarized human airway epithelial cells
# Assay: not given
# Type: cell-based
# Details: both ubiquitin ligase inhibitors combined, 2 mM pretreatment, 0.2 mM during infection
# Description: Primary culture of human bronchial epithelia and reagents utilized. Primary human airway epithelial cells were collected by enzymatic digestion of bronchial samples from lung transplants, as previously described (Kondo et al., 1991; Zabner et al., 1996). Isolated primary airway cells were seeded at a density of 5×10^5 cells/cm^2 onto collagen-coated Millicell-HA culture inserts (Millipore Corp., Bedford, Mass.). Primary cultures were grown at the air-liquid interface for more than 2 weeks, by which time differentiation into a mucociliary epithelium occurs. The culture medium, used to feed only the basolateral side of the cells, contained 49% DMEM, 49% Ham's F12 and 2% Ultraser G (BioSepra, Cedex, France). Dimethyl Sulphoxide (DMSO), camptothecin (Camp), etoposide (Etop), aphidicolin (Aphi), hydroxyurea (HU) and genistein (Geni) were purchased from Sigma (St. Louis, Mo.). Tripeptidyl aldehyde proteasome inhibitors N-Acetyl-L-Leucyl-L-Leucyl-Norleucine (LLnL) and benzyloxycarbonyl-L-leucyl-L-leucyl-L-leucinal (Z-LLL) were purchased from Calbiochem-Novabiochem Corporation (La Jolla, Calif.). Ubiquitin ligase (E3) inhibitors were obtained from Bachem Bioscience Inc. (King of Prussia, Pa.). Anti-AAV capsid monoclonal antibody (Anti-VP1, 2 and 3) was purchased from American Research Products (Belmont, Mass.) and anti-ubiquitin antibody was purchased from Santa Cruz Biotechnology Inc. (Santa Cruz, Calif.).
# Transduction of polarized airway epithelial cells and primary human fibroblasts. rAAV infection of fully differentiated bronchial cells was performed as described in Duan et al. (1998). For infections from the apical surface of the airway cells, 5 μl rAAV was mixed with 50 μl of culture media and applied directly onto the apical compartment of Millicell inserts (MOI=10,000 particles/cell). During apical infection, the basolateral side of the Millicell was continuously bathed in culture media. Gene transfer to the basal side was performed by inverting Millicell inserts and applying viral vector to the bottom of the supporting filter membrane in a 50 μl volume for 2 hours. Subsequently, Millicell inserts were returned to the upright position, in the continued presence of the original viral inoculum plus an additional 450 μl of media. For both apical and basolateral infections, rAAV containing media was removed after 24 hours and replaced with either fresh culture media (for the basal side) or exposed to air (for the apical side). To test the effect of different agents on the efficiency of AAV transduction in polarized airway cells, 1 μl of each solution was mixed with AAV prior to infection of airway epithelia. Agents were usually presented during the 24 hours AAV infection period unless indicated otherwise. Most of the agents were dissolved in DMSO except for hydroxyurea (dissolved in phosphate buffered saline), H-Leu-Ala-OH (dissolved in 0.9% glacial acetic acid) and H-His-Ala-OH (dissolved in 50% methanol). The working concentrations of the agents were as follows: 0.1 μM camptothecin, 10 μM etoposide, 5 μg/ml aphidicolin, 40 mM hydroxyurea, 50 μM genistein, 40 μM LLnL and 4 μM Z-LLL. When the ubiquitin ligase (E3) inhibitors (H-Leu-Ala-OH and H-His-Ala-OH) were used, airway cells were pretreated with a combination of both inhibitors at a final concentration of 2 mM for 60 minutes prior to infection, followed by the continued presence of inhibitor (0.2 mM) during the entire 24 hours infection period from the basolateral surface. Studies involving EGTA treatment were performed by transiently treating the apical membrane of polarized airway epithelia with 3 mM EGTA in water for 10 minutes (Duan et al., 1998). Following hypotonic EGTA treatment, cultures were washed twice with culture medium and infected with rAAV in the presence or absence of 40 μM LLnL. Human primary fibroblast cells (P4) were maintained in 10% fetal bovine serum (FBS), 1% penicillin and streptomycin, and 89% DMEM. […]
row,SMILES,rAAV transduction from the basolateral surface
1,C[C@H](NC(=O)[C@@H](N)Cc1cnc[nH]1)C(=O)O [H-His-Ala-OH] (H-His-Ala-OH),enhanced rAAV transduction from the basolateral surface
2,CC(C)C[C@H](N)C(=O)N[C@@H](C)C(=O)O [H-Leu-Ala-OH] (H-Leu-Ala-OH),enhanced rAAV transduction from the basolateral surface

# Same assay, conditions: data not shown
row,SMILES,rAAV transduction from the apical surface
1,CC[C@@]1(O)C(=O)OCc2c1cc1n(c2=O)Cc2cc3ccccc3nc2-1 [camptothecin],none of these agents facilitated rAAV transduction from the apical surface
2,COc1cc([C@@H]2c3cc4c(cc3[C@@H](O[C@@H]3O[C@@H]5CO[C@@H](C)O[C@H]5[C@H](O)[C@H]3O)[C@H]3COC(=O)[C@H]23)OCO4)cc(OC)c1O [etoposide],none of these agents facilitated rAAV transduction from the apical surface
3,O=c1c(-c2ccc(O)cc2)coc2cc(O)cc(O)c12 [genistein],none of these agents facilitated rAAV transduction from the apical surface
4,NC(=O)NO [hydroxyurea],none of these agents facilitated rAAV transduction from the apical surface

# System: primary human fibroblasts
# Assay: not given
# Type: cell-based
# Details: confluent primary human fibroblasts treated prior to rAAV infection; FACS at 96 hours post-infection
# Description: Initial studies were performed in confluent primary human fibroblasts since dose titrations and toxicity could be quickly assessed. Selected agents were used to treat fibroblast monolayers prior to rAAV infection. rAAV transduction was assessed at 96 hours post-infection by FACS analysis, and the percentage of dead cells was simultaneously assessed by incorporation of propidium iodide.
# These tripeptides are structurally related to chloroquine but have different lipid solubility and specificity for cysteine proteases (Seglen, 1983). These molecules decrease endosomal degradation of molecules by a mechanism different than altering pH.
row,SMILES,rAAV transduction
1,"C[C@H]1CCC/C=C/[C@@H]2C[C@H](O)C[C@H]2[C@H](O)/C=C/C(=O)O1 [BFA, brefeldin A]",significant enhancement of rAAV transduction
2,Cl.N [NH4Cl],significantly inhibited rAAV transduction
3,CCN(CC)CCCC(C)Nc1ccnc2cc(Cl)ccc12 (stereo not drawn) [chloroquine],significantly inhibited rAAV transduction
4,C=C1[C@@H](C)[C@H]2[C@H](Cc3ccccc3)NC(=O)[C@]23OC(=O)/C=C/[C@H](O)CCC[C@@H](C)C/C=C/[C@H]3[C@@H]1O [cytochalasin B],significant decrease in rAAV transduction
5,"CC[C@]1(O)C[C@@H]2CN(CCc3c([nH]c4ccccc34)[C@@](C(=O)OC)(c3cc4c(cc3OC)N(C)[C@H]3[C@@](O)(C(=O)OC)[C@H](OC(C)=O)[C@]5(CC)C=CCN6CC[C@]43[C@@H]65)C2)C1 [vinblastine, vinblastine sulfate]",little effect on rAAV transduction
